This is an account of results in article PMC12751141, “Disrupting α-Synuclein–ClpP interaction restores mitochondrial function and attenuates neuropathology in Parkinson’s disease models” (Molecular Neurodegeneration, 2025).

SMILES strings stand for the structures. “Also recorded” adds a separate entry of the source.

One assay has as its system SH-SY5Y cells. In words: Mitochondrial ROS (Mito-SOX) in SH-SY5Y cells. It is filed as cell-based. How it is done:
(§1) Cells cultured on coverslips or 24-well plates were washed with DPBS and then incubated with 5 µM Mito-SOX™ Red (Invitrogen, M36008), a mitochondrial superoxide indicator, for 10 min at 37 °C. For cells cultured on coverslips, the images were visualized by microscope, and quantification of images was then carried out using NIH ImageJ software. At least 100 cells per group were counted in the analysis.
The bimolecular fluorescence was examined 24-hour after transfection (n = 3, one-way ANOVA with Tukey’s post-hoc test, scale bar = 30 μm). (D) Quantification of the concentration (ng/ml) of extracellular αSyn monomer and oligomer, and intracellular αSyn oligomer in Tet-inducible SH-SY5Y cells that were pre-treated with TAT or CS2 peptide 30-minute before adding doxycycline (Dox) to induce αSyn expression. The concentration of αSyn species was determined by ELISA (n = 4, one-way ANOVA with Tukey’s post-hoc test; data are mean ± SEM). (E) Representative images of Mito-SOX staining in SH-SY5Y cells that were pre-treated with TAT or CS2 peptide and transfected with split Venus-αSyn vectors. Mitochondrial ROS production was determined by Mito-SOX staining after 24-hour transfection (n = 4, two-tailed Student’s t test, scale bar = 30 μm).

Assay [1] has as its system A53T-αSyn iPSC-derived neurons. Nature of the assay: Mitochondrial function (Mito-SOX, TMRM, ATP) in A53T-αSyn iPSC-derived neurons. It is filed as cell-based, human.
Source text: PD iPS cells lines (αSyn A53T, NN0004337, donor) and its isogenic corrected control line (NN0004344) were obtained from RUCDR Infinite Biologics. The iPS cells were differentiated into dopaminergic neuron-enriched neuronal culture with the protocol described previously. Briefly, iPS cell colonies were disassociated with accutase (Invitrogen), plated onto 6-well plates pre-coated with 2.5% Matrigel (BD Biosciences) and allowed to reach 80% confluence in mTeSR medium (Stem Cell Technology). For the first 10 days, cells were treated with SB431542 (10 µM; Tocris Bioscience) and Noggin (100 ng/ml) in Neural Media (NM) with FGF2 ([…]) and EGF ([…]). NM media contained: Neurobasal and DMEM/F12 (1:1), B-27 Supplement Minus Vitamin A (50×, Invitrogen), N2 Supplement (100X, Invitrogen), GlutaMAX (Invitrogen, 100×), 100 units/ml penicillin and 100 µg/ml streptomycin (Fisher); for the next 4 days, cells were treated with human recombinant Sonic hedgehog (SHH, 200 ng/ml) in neuronal differentiation medium. […]
as §1
Cells cultured on coverslips or 24-well plates were washed with DPBS and then incubated with 0.25 µM Tetramethylrhodamine, methyl ester (TMRM) (Invitrogen, T668), for 20 min at 37 °C. For cells cultured on coverslips, the images were visualized by microscope, and quantification of images was then carried out using NIH Fiji ImageJ software. At least 100 cells per group were counted in the analysis.
Cells were seeded in 24-well plates, followed by the indicated treatment. The ATP level in each well was determined using the ATP assay kit according to the manufacturer’s procedures (Cayman Chemical, 700410).

The test system of the next assay is αSyn oligomer. In words: αSyn oligomer ELISA, Tet-inducible αSyn SH-SY5Y cells. It is filed as cell-based, human. The following applies: 10 µM, two days, vs TAT, n = 4. Here is the method:
After one day incubation with doxycycline (1µM), αSyn tet-on inducible expression SHSY5Y cells were treated with TAT or CS2 peptides at 10 µM for another two days. The level of αSyn monomer released into culture medium was measured using LEGEND MAX human αSyn ELISA kit (448607, Biolegend). The level of extracellular and intracellular αSyn oligomers was measured using human alpha synuclein oligomer ELISA kit (MBS730762, Mybioresource).
(In general: An ELISA detects its analyte on a solid surface through an enzyme-linked reagent.)

The test system of the next assay is mThy1-hSNCA mice. In words: Y-maze test in mThy1-hSNCA mice. It is filed as in vivo, mouse. Here is the method:
C57BL/6 N-Tg (Thy1-SNCA)15Mjff/J (JAX: 017682) breeders (C57Bl/6NJ genetic background) were purchased from Jackson Laboratories. The mice were mated, bred, and genotyped in the animal facility of Case Western Reserve University. All mice were maintained at a 12-hour light/dark cycle (on 6 am, off 6 pm). All randomization and peptide treatments in mThy1-hSNCA mice were prepared by an experimenter not associated with the behavioral and neuropathology analysis. Only male mice were used in the study. mThy1-hSNCA transgenic mice and their age-matched WT littermates were implanted with a 28-day subcutaneous osmotic pump (Alzet, Cupertino CA, Model 2004) containing either TAT control peptide or CS2 peptide, which delivered the peptides at indicated rate (1 or 3 or 10 mg/kg/day). The pump was replaced once every four weeks. All mice were sacrificed at age of 10-month for neuropathology assessment.
On the test day, mice at 6-month-old were brought to the testing room one hour before performing the Y-maze test to allow habituation. The mice were placed in the middle of the Y-maze and allowed to explore the three arms for 4-min. During exploration, the arm entries were recorded. The equipment was cleaned after every test to avoid odor disturbance. Spontaneous alternation was defined as a successive entry into three different arms on overlapping triplet sets.
Fig. 7 CS2 treatment is protective in mThy1-hSNCA mouse model of PD. (A) Experimental schematic of CS2 treatment in mThy1-hSNCA (Thy1) mouse model of PD: TAT or CS2 peptide was administered (3 mg/kg/day) via subcutaneous osmotic pump (O.P.) in Thy1 mice and their wild-type (WT) littermates starting from age of 4-month till 10-month. […] (D) Representative images of pS129-αSyn staining in substantia nigra of WT and Thy1 mice treated with TAT or CS2 peptide (scale bar = 100 μm). […] (G) Representative images of ClpP and tyrosine […] (TH) staining on the brain coronal sections from TAT or CS2-treated Thy1 mice and their WT littermates (scale bar = 100 μm). […]

For the compound `CC(C)[C@H](NC(=O)CNC(=O)CNC(=O)CCCCCNC(=O)[C@H](CCCNC(=N)N)NC(=O)[C@H](CCCNC(=N)N)NC(=O)[C@H](CCCNC(=N)N)NC(=O)[C@H](CCC(N)=O)NC(=O)[C@H](CCCNC(=N)N)NC(=O)[C@H](CCCNC(=N)N)NC(=O)[C@H](CCCCN)NC(=O)[C@H](CCCCN)NC(=O)[C@H](CCCNC(=N)N)NC(=O)CNC(=O)[C@@H](N)Cc1ccc(O)cc1)C(=O)N[C@H](C(=O)N[C@H](C(=O)N[C@@H](C)C(=O)O)[C@@H](C)O)C(C)C` [CS2, TAT-C6-GGVVTA], in the assay on SH-SY5Y cells (ClpPsh SH-SY5Y overexpressing αSyn, effect of reducing ROS, n = 13 areas/group), the “mitochondrial ROS, ClpP-deficient cells” value is on record as “no protective effect; also recorded: not observed in ClpP-deficient cells”. Further, the “mitochondrial ROS (Mito-SOX intensity)” value with SH-SY5Y cells (SH-SY5Y expressing VN/VC-αSyn (CS1: WT αSyn), Mito-SOX 5 µM, vs TAT) is listed as “significant reduction of the fluorescence intensity of Mito-SOX”. The “mitochondrial ROS, iPSC neurons” value in assay [1] (Mito-SOX, n = 3) is “reduced mitochondrial ROS”. Also, in assay [1] (TMRM, n = 3), the “mitochondrial membrane potential, iPSC neurons” value is listed as “rescued mitochondrial membrane potential”. In addition, in assay [1] (n = 6), the “ATP content, iPSC neurons” value is “rescued mitochondrial membrane potential and ATP content”. Moreover, in the assay with αSyn oligomer, the “extracellular αSyn oligomer” value was “decreased levels” and the “intracellular αSyn oligomer” value is “decreased levels”. Besides, the “cognitive activity in Y-maze” value in the assay on mThy1-hSNCA mice (3 mg/kg/day s.c., age of 6-month, n = 15 mice/group, vs TAT) is “improved cognitive activity”. Moreover, the “spontaneous alternation, dose dependence” value with mThy1-hSNCA mice (1, 3 or 10 mg/kg/day s.c. osmotic mini pump, 8 weeks from 4 months, tested at 6 months, n = 3 mice/group) is “improved spontaneous alternation behavior in a dose-dependent manner”. Also, the “spontaneous alternation, 3 vs 10 mg/kg/day” value with mThy1-hSNCA mice (s.c., 8 weeks, comparison of 3 and 10 mg/kg/day) was “no significant difference between 3 and 10 mg/kg/day”.
